pIC50: −log10 of the molar value. Read-outs that look alike come from different tables or passages of the source.
Experiments:
[1] = test system: Aβ42 production in primary nerve cells; assay: Measurement of amyloid β production inhibition rate using primary nerve cell (Aβ42 sandwich ELISA); type: cell-based; details: primary nerve cells from cerebral cortex of SD rat fetus, cultured 3 days with compound, culture supernatant, sandwich ELISA for Aβ42, read-out: Aβ42 production inhibitory activity IC50
Experimental: Measurement of Amyloid β Production Inhibition Rate Using Primary Nerve Cell
The primary nerve cells were collected from the cerebral cortex of rat fetus (CLEA Japan, Inc.: SD rat, fetal life 17 days of age), and suspended in a neurobasal medium containing B27 supplement, L-glutamine, penicillin-streptomycin (manufactured by Invitrogen) at 500,000 cells/mL. Then, the suspension was seeded in poly L-lysine-coated 96 well plate (manufactured by SUMITOMO BAKELITE) by 100 μL, and cultured at 37° C., 5% CO2 for 7 days. The medium was completely removed, and a new neurobasal medium was added at 75 μL/well. Thereto was added (75 μL/well) a neurobasal medium supplemented with a 2-fold measurement concentration of an evaluation target compound, and the mixture was cultured for 3 days. The culture supernatant was collected from each well, diluted as appropriate, applied to sandwich ELISA between BNT77 antibody-BA27 antibody (for Aβ40) and sandwich ELISA between BNT77 antibody-3005 antibody (for Aβ42), and the amounts of Aβ40 and Aβ42 were measured.
The amyloid β production inhibition rate (%) of the compound was calculated by the following formula. (1−(amyloid β production amount with addition of compound)/(amyloid β production amount without addition of compound))×100
The amyloid β production 50% inhibitory rate (IC50 value) was calculated using the statistical analysis software (SAS Preclinical Package) as the concentration of the compound showing 50% inhibition when the amyloid β production amount without addition of the compound is 100%. In addition, a new neurobasal medium was added (75 μL/well) to the cells after collection of the culture supernatant, and the cells were left standing for about 30 min to reach room temperature. Cell-Titer Glo Luminescent Cell Viability Assay (manufactured by Promega) was added at 75 μL/well, and the plate was shaken for 2 min and reacted for about 10 min.

[2] = test system: Aβ42 (soluble Aβ in hippocampi); assay: Aβ42 in hippocampi of mice after oral administration (Aβ ELISA); type: in vivo; details: C57BL/6J mice, 10 mg/kg orally, hippocampi isolated 3 hours after administration, soluble Aβ42 by two-site sandwich ELISA; for inhibition at 10 mg/kg: Mus musculus, po, 3 h, read-out: Aβ42 production inhibitory activity (% inhibition); for Aβ42 production inhibitory activity (% inhibition): 10 mg/kg
Experimental: C57BL/6J mice (7-10 weeks old) were purchased from CLEA Japan Inc. Mice were housed in groups and kept on a 12 h-light; 12 h-dark schedule. All mice were given ad libitum access to food and water.
Each test compound was reconstituted in solubilization buffer ([DMSO (Wako)]: [10% Cremophor (Nakarai)+30% polyethylene glycol 400 (Wako)+60% 2 mol/L Citrate buffer (Wako)]=1:9) and orally administrated at 10 mg/kg.
Hippocampi was isolated from animals, 3 hours after test compounds were orally administrated. Hippocampi were homogenized in ice-cold Tris-extraction buffer (50 mmol/L Tris-HCl, pH 7.2, 200 mmol/L sodium chloride, 2% protease-free bovine serum albumin, and 0.01% sodium merthiolate) containing protease inhibitor cocktails (Roche, Switzerland). After centrifugation at 15,000 rpm for 15 minutes, the supernatants were subjected to two-site sandwich ELISA to measure amount of soluble Aβ. Aβ42 was quantitated by two-site sandwich ELISA using BNT77, which recognizes Aβ11-28, as a capture antibody and BC05-HRP as a detector antibody, respectively.

In the case of COc1cc(-c2nnc3n2CCC[C@]3(Oc2cc(F)c(F)c(F)c2)C(C)(C)O)ccc1-c1cnc(C)o1 [Example 122, 2-{(8R)-3-[3-methoxy-4-(2-methyl-1,3-oxazol-5-yl)phenyl]-8-(3,4,5-trifluorophenoxy)-5,6,7,8-tetrahydro[1,2,4]triazolo[4,3-a]pyridin-8-yl}propan-2-ol], the pIC50 ([1]; Rattus norvegicus, 72 h) was 7.72 and the inhibition at 10 mg/kg [2] was 54%.

Work on COc1cc(-c2nnc3n2CCCC3(Oc2cccc(C(F)(F)F)c2)C(C)(C)O)ccc1-c1cnc(C)o1 (stereo not shown) [Example 103, 2-{3-[3-methoxy-4-(2-methyl-1,3-oxazol-5-yl)phenyl]-8-[3-(trifluoromethyl)phenoxy]-5,6,7,8-tetrahydro[1,2,4]triazolo[4,3-a]pyridin-8-yl}propan-2-ol] yielded a pIC50 ([1]; Rattus norvegicus, 72 h) of 7.39 and an inhibition at 10 mg/kg [2] of 42%.

Work on COc1cc(-c2nnc3n2CCCC3(Oc2cc(F)c(F)c(F)c2)C(C)(C)O)ccc1-c1cnn(C)c1 (stereo not shown) [Example 144, 2-{3-[3-methoxy-4-(1-methyl-1H-pyrazol-4-yl)phenyl]-8-(3,4,5-trifluorophenoxy)-5,6,7,8-tetrahydro[1,2,4]triazolo[4,3-a]pyridin-8-yl}propan-2-ol] yielded a pIC50 ([1]; Rattus norvegicus, 72 h) of 6.67 and an inhibition at 10 mg/kg [2] of 31%.

Work on COc1nc(-c2nnc3n2CCCC3(Oc2ccc(F)c(C(F)(F)F)c2)C(C)(C)O)ccc1-n1cnc(C)c1 (stereo not shown) [Example 157, 2-{8-[4-fluoro-3-(trifluoromethyl)phenoxy]-3-[6-methoxy-5-(4-methyl-1H-imidazol-1-yl)pyridin-2-yl]-5,6,7,8-tetrahydro[1,2,4]triazolo[4,3-a]pyridin-8-yl}propan-2-ol] yielded a pIC50 [1] of 8.22 and an inhibition at 10 mg/kg [2] of 61%.

COc1cc(-c2nnc3n2CCCC3(CC2CC2)c2ccc(F)c(F)c2)ccc1-c1cnc(C)o1 (stereo not shown) [Example 21, optically active 8-(cyclopropylmethyl)-8-(3,4-difluorophenyl)-3-[3-methoxy-4-(2-methyl-1,3-oxazol-5-yl)phenyl]-5,6,7,8-tetrahydro[1,2,4]triazolo[4,3-a]pyridine] gave a pIC50 [1] of 8.30 and an inhibition at 10 mg/kg [2] of 39%.

With COc1cc(-c2nnc3n2CCCC3(Oc2ccc(C(F)(F)F)cc2)C(C)(C)O)ccc1-c1cnc(C)o1 (stereo not shown) [Example 132, 2-{3-[3-methoxy-4-(2-methyl-1,3-oxazol-5-yl)phenyl]-8-[4-(trifluoromethyl)phenoxy]-5,6,7,8-tetrahydro[1,2,4]triazolo[4,3-a]pyridin-8-yl}propan-2-ol] the pIC50 [1] was 7.72 and the “Aβ42 production inhibitory activity (% inhibition)” value [2] was 58%.

COc1nc(-c2nnc3n2CCCC3(Oc2cc(F)c(F)c(F)c2)C(C)(C)O)ccc1-c1cnc(C)o1 (stereo not shown) [Example 172, 2-{3-[6-methoxy-5-(2-methyl-1,3-oxazol-5-yl)pyridin-2-yl]-8-(3,4,5-trifluorophenoxy)-5,6,7,8-tetrahydro[1,2,4]triazolo[4,3-a]pyridin-8-yl}propan-2-ol] gave a pIC50 ([1]; Rattus norvegicus, 72 h) of 7.33 and an inhibition at 10 mg/kg [2] of 35%.

COc1cc(-c2nnc3n2CCCC3(Oc2cc(F)cc(F)c2)C(C)(C)O)ccc1-c1cnc(C)o1 (stereo not shown) [Example 141, 2-{8-(3,5-difluorophenoxy)-3-[3-methoxy-4-(2-methyl-1,3-oxazol-5-yl)phenyl]-5,6,7,8-tetrahydro[1,2,4]triazolo[4,3-a]pyridin-8-yl}propan-2-ol] showed a pIC50 [1] of 7.11 and an inhibition at 10 mg/kg [2] of 46%.

COc1cc(-c2nnc3n2CCCC3(Oc2cc(F)c(F)c(F)c2)C(C)(C)O)c(F)cc1-c1cnc(C)o1 (stereo not shown) [Example 162, 2-{3-[2-fluoro-5-methoxy-4-(2-methyl-1,3-oxazol-5-yl)phenyl]-8-(3,4,5-trifluorophenoxy)-5,6,7,8-tetrahydro[1,2,4]triazolo[4,3-a]pyridin-8-yl}propan-2-ol] gave a pIC50 ([1]; Rattus norvegicus, 72 h) of 7.07 and an inhibition at 10 mg/kg [2] of 26%.

For COc1cc(-c2nnc3n2CCCC3(Oc2cccc(C(F)(F)F)c2)C(C)(C)O)ccc1-c1cnc(C)o1 (stereo not shown) [Example 130, 2-{3-[3-methoxy-4-(2-methyl-1,3-oxazol-5-yl)phenyl]-8-[3-(trifluoromethyl)phenoxy]-5,6,7,8-tetrahydro[1,2,4]triazolo[4,3-a]pyridin-8-yl}propan-2-ol], the pIC50 [1] was 7.62 and the “Aβ42 production inhibitory activity (% inhibition)” value [2] was 59%.

COc1nc(-c2nnc3n2CCCC3(Oc2ccc(F)c(C(F)(F)F)c2)C(C)(C)O)ccc1-n1cnc(C)c1 (stereo not shown) [Example 2, 2-{8-[4-fluoro-3-(trifluoromethyl)phenoxy]-3-[6-methoxy-5-(4-methyl-1H-imidazol-1-yl)pyridin-2-yl]-5,6,7,8-tetrahydro[1,2,4]triazolo[4,3-a]pyridin-8-yl}propan-2-ol] was tested, and the pIC50 [1] was 7.72 and the “Aβ42 production inhibitory activity (% inhibition)” value [2] was 48%.

COc1cc(-c2nnc3n2CCCC3(COc2ccc(Cl)cc2)C(C)(C)O)ccc1-c1cnc(C)o1 (stereo not shown) [Example 127, 2-{8-[(4-chlorophenoxy)methyl]-3-[3-methoxy-4-(2-methyl-1,3-oxazol-5-yl)phenyl]-5,6,7,8-tetrahydro[1,2,4]triazolo[4,3-a]pyridin-8-yl}propan-2-ol] was tested, and the pIC50 ([1]; Rattus norvegicus, 72 h) was 7.36 and the inhibition at 10 mg/kg [2] was 21%.

For COc1cc(-c2nnc3n2CCCC3(Oc2cc(F)cc(F)c2)C(C)(C)O)ccc1-c1cnc(C)o1 (stereo not shown) [Example 155, 2-{8-(3,5-difluorophenoxy)-3-[3-methoxy-4-(2-methyl-1,3-oxazol-5-yl)phenyl]-5,6,7,8-tetrahydro[1,2,4]triazolo[4,3-a]pyridin-8-yl}propan-2-ol], the pIC50 [1] was 7.55 and the “Aβ42 production inhibitory activity (% inhibition)” value [2] was 56%.

Work on CCC(O)(CC)C1(Oc2ccc(Cl)c(F)c2)CCCn2c(-c3ccc(-c4cnc(C)o4)c(OC)c3)nnc21 (stereo not shown) [Example 120, 3-{8-(4-chloro-3-fluorophenoxy)-3-[3-methoxy-4-(2-methyl-1,3-oxazol-5-yl)phenyl]-5,6,7,8-tetrahydro[1,2,4]triazolo-[4,3-a]pyridin-8-yl}pentan-3-ol] yielded a pIC50 ([1]; Rattus norvegicus, 72 h) of 8.40 and an inhibition at 10 mg/kg [2] of 21%.

— US8822699B2, “Heterocyclic compound and use thereof” (Takeda Pharmaceutical Company Limited, priority 2010, dated 2014)
